Legend:
[1] = Parent and phosphate concentrations in the BLR assay; settings: rat, in vivo, po, Lewis rats dosed orally
Experimental: (§1) Blood Lymphocyte Reduction (BLR) Assay in Rodent:
Lewis rats were dosed orally with vehicle alone (polyethylene glycol 300, “PEG300”) or with test compounds. Compounds were dosed as a solution or suspension in the vehicle, adjusted to reflect the free amount of test article in the event that salt forms are utilized. Blood was drawn at 24 hr and blood lymphocyte counts were determined on an ADVIA 120 Hematology Analyzer (Siemens Healthcare Diagnostics). The results were measured as a reduction in the percentage of circulating lymphocytes as compared to the vehicle treated group at the time of measurement. The results represent the average results of all animals within each treatment group (n=2).

circulating lymphocytes = test: Blood Lymphocyte Reduction (BLR) assay in rodent; type: in vivo; settings: Lewis rats dosed orally; for BL (×10^3/mm^3): n=2; for Lymp. Red.: vs vehicle group
Experimental: as §1
Lewis rats were dosed orally with vehicle alone (polyethylene glycol 300, “PEG300”) or with test compounds. Compounds were dosed as a solution or suspension in the vehicle, adjusted to reflect the free amount of test article in the event that salt forms are utilized. […] The results were measured as a reduction in the percentage of circulating lymphocytes as compared to the vehicle treated group at the time of measurement. The results represent the average results of all animals within each treatment group (n=2).

[2] = Parent and phosphate concentrations in the BLR assay; settings: rat, in vivo, po, Lewis rats dosed orally; remark: listed apart in the source

SMILES	concentration at 24 h [1]	concentration at 4 h [2]	BL (×10^3/mm^3) (circulating lymphocytes; 4 Hours)	Lymp. Red. (circulating lymphocytes; 4 Hours)	BL (×10^3/mm^3) (circulating lymphocytes; 24 Hours)	Lymp. Red. (circulating lymphocytes; 24 Hours)
CCCCCCCc1nc2c(s1)-c1ccc([C@H]3CC[C@](N)(CO)C3)cc1CC2 [Example 1, ((1R,3S)-1-amino-3-(2-heptyl-4,5-dihydronaphtho[2,1-d]thiazol-7-yl)cyclopentyl) methanol]	111 nM	66 nM	5.7 ×10^3/mm^3	40%	1.8 ×10^3/mm^3	77%
CCCc1nc2c(s1)-c1ccc([C@H]3CC[C@](N)(CO)C3)cc1CC2 [Example 2, ((1R,3S)-1-amino-3-(2-propyl-4,5-dihydronaphtho[2,1-d]thiazol-7-yl)cyclopentyl) methanol]	< 19 nM	108 nM	4.9 ×10^3/mm^3	41%	8.2 ×10^3/mm^3	0%
CCCCCCc1nc2c(s1)-c1ccc([C@H]3CC[C@](N)(CO)C3)cc1CC2 [Example 5, ((1R,3S)-1-amino-3-(2-hexyl-4,5-dihydronaphtho[2,1-d]thiazol-7-yl)cyclopentyl)methanol]	9 nM	77 nM	2.8 ×10^3/mm^3	66%	4.5 ×10^3/mm^3	48%
CCCCc1nc2c(s1)-c1ccc([C@H]3CC[C@](N)(CO)C3)cc1CC2 [Example 6, ((1R,3S)-1-amino-3-(2-butyl-4,5-dihydronaphtho[2,1-d]thiazol-7-yl)cyclopentyl)methanol]	66 nM	109 nM	3.4 ×10^3/mm^3	59%	1.5 ×10^3/mm^3	82%
CCCCOCCOc1nc2c(s1)-c1ccc([C@H]3CC[C@](N)(CO)C3)cc1CC2 [Example 7, ((1R,3S)-1-amino-3-(2-(2-butoxyethoxy)-4,5-dihydronaphtho[2,1-d]thiazol-7-yl)cyclopentyl)methanol]	142 nM	1 nM	1.9 ×10^3/mm^3	79%	1.2 ×10^3/mm^3	87%
CCCCOc1nc2c(s1)-c1ccc([C@H]3CC[C@](N)(CO)C3)cc1CC2 [Example 8, ((1R,3S)-1-amino-3-(2-butoxy-4,5-dihydronaphtho[2,1-d]thiazol-7-yl)cyclopentyl)methanol]	7 nM	35 nM	2.5 ×10^3/mm^3	74%	2.4 ×10^3/mm^3	68%
CCCCCCOc1nc2ccc3cc([C@H]4CC[C@](N)(CO)C4)ccc3c2s1 [Example 13, ((1R,3S)-1-amino-3-(2-(hexyloxy)naphtho[2,1-d]thiazol-7-yl)cyclopentyl)methanol]	78 nM	65 nM	2.5 ×10^3/mm^3	73%	1.4 ×10^3/mm^3	83%
CCCCOc1nc2ccc3cc([C@H]4CC[C@](N)(CO)C4)ccc3c2s1 [Example 16, ((1R,3S)-1-amino-3-(2-butoxynaphtho[2,1-d]thiazol-7-yl)cyclopentyl)methanol]	21 nM	28 nM	2.9 ×10^3/mm^3	65%	1.9 ×10^3/mm^3	77%

Now from value to molecule, other results behind:

concentration at 24 h [1]	concentration at 4 h [2]	SMILES	BL (×10^3/mm^3) (circulating lymphocytes; 4 Hours)	Lymp. Red. (circulating lymphocytes; 4 Hours)	BL (×10^3/mm^3) (circulating lymphocytes; 24 Hours)	Lymp. Red. (circulating lymphocytes; 24 Hours)
31 nM	72 nM	CCCCCCOc1nc2c(s1)-c1ccc([C@H]3CC[C@](N)(CO)C3)cc1CC2 [Example 9, ((1R,3S)-1-amino-3-(2-(hexyloxy)-4,5-dihydronaphtho[2,1-d]thiazol-7-yl)cyclopentyl) methanol]	2.8 ×10^3/mm^3	66%	1.4 ×10^3/mm^3	82%
1 nM	9 nM	CCCCSc1nc2c(s1)-c1ccc([C@H]3CC[C@](N)(CO)C3)cc1CC2 [Example 10, ((1R,3S)-1-amino-3-(2-(butylthio)-4,5-dihydronaphtho[2,1-d]thiazol-7-yl)cyclopentyl)methanol]	1.7 ×10^3/mm^3	82%	4.1 ×10^3/mm^3	48%
16 nM	87 nM	CCCCCSc1nc2c(s1)-c1ccc([C@H]3CC[C@](N)(CO)C3)cc1CC2 [Example 11, ((1R,3S)-1-amino-3-(2-(pentylthio)-4,5-dihydronaphtho[2,1-d]thiazol-7-yl)cyclopentyl) methanol]	2.3 ×10^3/mm^3	72%	2.1 ×10^3/mm^3	76%
29 nM	81 nM	CCCCCOc1nc2c(s1)-c1ccc([C@H]3CC[C@](N)(CO)C3)cc1CC2 [Example 12, ((1R,3S)-1-amino-3-(2-(pentyloxy)-4,5-dihydronaphtho[2,1-d]thiazol-7-yl)cyclopentyl)methanol]	2.8 ×10^3/mm^3	67%	1.8 ×10^3/mm^3	80%
8 nM	15 nM	CCCCSc1nc2ccc3cc([C@H]4CC[C@](N)(CO)C4)ccc3c2s1 [Example 14, ((1R,3S)-1-amino-3-(2-(butylthio)naphtho[2,1-d]thiazol-7-yl)cyclopentyl)methanol]	2.6 ×10^3/mm^3	69%	2.1 ×10^3/mm^3	75%
17 nM	31 nM	CCCCCOc1nc2ccc3cc([C@H]4CC[C@](N)(CO)C4)ccc3c2s1 [Example 15, ((1R,3S)-1-amino-3-(2-(pentyloxy)naphtho[2,1-d]thiazol-7-yl)cyclopentyl)methanol]	1.7 ×10^3/mm^3	80%	1.8 ×10^3/mm^3	80%
0 nM	33 nM	CCCCNc1nc2c(s1)-c1ccc([C@H]3CC[C@](N)(CO)C3)cc1CC2 [Example 17, ((1R,3S)-1-amino-3-(2-(butylamino)-4,5-dihydronaphtho[2,1-d]thiazol-7-yl)cyclopentyl)methanol]	5.8 ×10^3/mm^3	37%	8.4 ×10^3/mm^3	0%
18 nM	113 nM	CCCCN(C)c1nc2c(s1)-c1ccc([C@H]3CC[C@](N)(CO)C3)cc1CC2 [Example 18, ((1R,3S)-1-amino-3-(2-(butyl(methyl)amino)-4,5-dihydronaphtho[2,1-d]thiazol-7-yl)cyclopentyl)methanol]	5.9 ×10^3/mm^3	30%	6.4 ×10^3/mm^3	27%
37 nM	48 nM	Cc1ccc(-c2nc3c(s2)-c2ccc([C@H]4CC[C@](N)(CO)C4)cc2CC3)cc1 [Example 19, ((1R,3S)-1-amino-3-(2-(p-tolyl)-4,5-dihydronaphtho[2,1-d]thiazol-7-yl)cyclopentyl)methanol]	7.5 ×10^3/mm^3	9%	8.2 ×10^3/mm^3	2%
68 nM	97 nM	COc1cccc(-c2nc3c(s2)-c2ccc([C@H]4CC[C@](N)(CO)C4)cc2CC3)c1 [Example 20, ((1R,3S)-1-amino-3-(2-(3-methoxyphenyl)-4,5-dihydronaphtho[2,1-d]thiazol-7-yl)cyclopentyl)methanol]	5.7 ×10^3/mm^3	31%	3.1 ×10^3/mm^3	63%

From US10633354B2, “Substituted tricyclic heterocyclic compounds” (BRISTOL-MYERS SQUIBB COMPANY, priority 2016, dated 2020)
